The record followed here is US12391697B2, “Condensed bi-heterocycles as inhibiting agents for Bruton's tyrosine kinase” (BIOGEN MA INC., priority 2019, dated 2025).

SMILES strings stand for the structures. Where a name gives a salt, the structure may show the parent alone. Where only a bound is given, the exact number is not on record here.

Chain of BTK (Q06187 whole entry): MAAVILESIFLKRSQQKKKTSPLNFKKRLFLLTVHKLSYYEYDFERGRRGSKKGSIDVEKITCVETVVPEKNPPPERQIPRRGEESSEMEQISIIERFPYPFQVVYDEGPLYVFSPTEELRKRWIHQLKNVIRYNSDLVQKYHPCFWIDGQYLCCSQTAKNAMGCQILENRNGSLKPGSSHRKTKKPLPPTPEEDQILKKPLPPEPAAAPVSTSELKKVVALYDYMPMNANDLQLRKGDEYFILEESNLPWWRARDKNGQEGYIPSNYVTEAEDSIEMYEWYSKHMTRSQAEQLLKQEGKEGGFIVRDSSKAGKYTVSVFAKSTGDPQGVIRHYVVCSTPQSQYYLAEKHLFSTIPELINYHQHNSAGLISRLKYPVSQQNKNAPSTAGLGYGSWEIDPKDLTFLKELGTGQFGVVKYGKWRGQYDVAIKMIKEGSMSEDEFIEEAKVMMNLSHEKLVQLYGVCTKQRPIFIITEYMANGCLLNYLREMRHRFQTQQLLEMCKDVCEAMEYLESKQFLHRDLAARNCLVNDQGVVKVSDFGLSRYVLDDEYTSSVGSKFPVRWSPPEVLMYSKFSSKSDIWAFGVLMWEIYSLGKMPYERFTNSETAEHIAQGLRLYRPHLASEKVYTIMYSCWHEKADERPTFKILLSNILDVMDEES

The experiment has as its target BTK (Homo sapiens (Human), UniProt Q06187). Nature of the experiment: In Vitro BTK Kinase Assay: Btk-PolyGAT-LS Assay. It is filed as biochemical. To be noted: active BTK enzyme 0.25 nM, ATP 10 μM, polyGAT 100 nM, 30 minutes. The protocol:
In Vitro BTK Kinase Assay: Btk-PolyGAT-LS Assay
The purpose of the BTK in vitro assay is to determine compound potency against BTK through the measurement of IC50. […] The BTK kinase reaction was done in a black 96 well plate (costar 3694). For a typical assay, a […] aliquot of a ATP/peptide master mix (final concentration; ATP 10 μM, polyGAT 100 nM) in kinase buffer (10 mM Tris-HCl pH 7.5, 10 mM MgCl2, 200 μM […], 5 mM DTT, 0.01% Triton X-100, and 0.2 mg/ml casein) is added to each well. Next, […] of a 4-fold, 40× compound titration in 100% DMSO solvent is added, followed by adding 15 uL of BTK enzyme mix in 1× kinase buffer (with a final concentration of 0.25 nM). The assay is incubated for 30 minutes before being stopped with […] of a 50 mM EDTA solution. Aliquots (5 uL) of the kinase reaction are transferred to a low volume white 384 well plate (Corning 3674), and […] of a 2× detection buffer (Invitrogen PV3574, with 4 nM Tb-PY20 antibody, Invitrogen PV3552) is added. The plate is covered and incubated for 45 minutes at room temperature. Time resolved fluorescence (TRF) on Molecular Devices M5 (332 nm excitation; 488 nm emission; 518 nm fluorescein emission) is measured.
In the case of `Cn1cc(-c2cc3c(-c4ccc(CNC(=O)c5cn(C(C)(C)C)nn5)c(C(F)F)c4)ncnn3c2)cn1` [Example 64, 1-(tert-butyl)-N-(2-(difluoromethyl)-4-(6-(1-methyl-1H-pyrazol-4-yl)pyrrolo[2,1-f][1,2,4]triazin-4-yl)benzyl)-1H-1,2,3-triazole-4-carboxamide hydrochloride], the IC50 was no more than 1 nM.
In turn, `CC(C)(C)c1noc(C(=O)NCc2ccc(-c3ncnn4cc(N5CCOCC5)cc34)cc2CC(F)F)n1` [Example 65, 3-(tert-butyl)-N-(2-(2,2-difluoroethyl)-4-(6-morpholinopyrrolo[2,1-f][1,2,4]triazin-4-yl)benzyl)-1,2,4-oxadiazole-5-carboxamide hydrochloride] yielded an IC50 of no more than 1 nM.
Turning to `Cn1cc(-c2cc3c(-c4ccc(CNC(=O)c5nc(C(C)(C)C)no5)c(CC(F)F)c4F)ncnn3c2)cn1` [Example 66, 3-(tert-butyl)-N-(2-(2,2-difluoroethyl)-3-fluoro-4-(6-(1-methyl-1H-pyrazol-4-yl)pyrrolo[2,1-f][1,2,4]triazin-4-yl)benzyl)-1,2,4-oxadiazole-5-carboxamide hydrochloride], the IC50 was no more than 1 nM.
As to `Cc1cc(-c2ncnn3cc(C(=O)N(C)C)cc23)ccc1CNC(=O)c1noc(C(C)(C)C)n1` [Example 67, 5-(tert-butyl)-N-(4-(6-(dimethylcarbamoyl)pyrrolo[2,1-f][1,2,4]triazin-4-yl)-2-methylbenzyl)-1,2,4-oxadiazole-3-carboxamide hydrochloride], the IC50 is no more than 1 nM.
On to `Cc1cc(-c2ncnn3cc(-c4ncccn4)cc23)ccc1CNC(=O)c1noc(C(C)(C)C)n1` [Example 68, 5-(tert-butyl)-N-(2-methyl-4-(6-(pyrimidin-2-yl)pyrrolo[2,1-f][1,2,4]triazin-4-yl)benzyl)-1,2,4-oxadiazole-3-carboxamide hydrochloride], for which the IC50 was no more than 1 nM.
In the case of `Cc1cc(-c2ncnn3cc(N4CCN(C)CC4)cc23)ccc1CNC(=O)c1nc(C(C)(C)C)no1` [Example 69, 3-(tert-butyl)-N-(2-methyl-4-(6-(4-methylpiperazin-1-yl)pyrrolo[2,1-f][1,2,4]triazin-4-yl)benzyl)-1,2,4-oxadiazole-5-carboxamide] it was no more than 1 nM; in that of `Cc1cc(-c2ncnn3cc(N4CCN(C)C[C@H]4C)cc23)ccc1CNC(=O)c1noc(C(C)(C)C)n1` [Example 70, (R)-5-(tert-butyl)-N-(4-(6-(2,4-dimethylpiperazin-1-yl)pyrrolo[2,1-f][1,2,4]triazin-4-yl)-2-methylbenzyl)-1,2,4-oxadiazole-3-carboxamide trifluoroacetate], 1 to 10 nM; in that of `Cc1cc(-c2ncnn3cc(C4COC4)cc23)ccc1CNC(=O)c1noc(C(C)(C)C)n1` [Example 71, 5-(tert-butyl)-N-(2-methyl-4-(6-(oxetan-3-yl)pyrrolo[2,1-f][1,2,4]triazin-4-yl)benzyl)-1,2,4-oxadiazole-3-carboxamide trifluoroacetate], greater than 10 nM.
For `Cc1cc(-c2ncnn3cc(C4CCOCC4)cc23)ccc1CNC(=O)c1nc(C(C)(C)C)no1` [Example 72, 3-(tert-butyl)-N-(2-methyl-4-(6-(tetrahydro-2H-pyran-4-yl)pyrrolo[2,1-f][1,2,4]triazin-4-yl)benzyl)-1,2,4-oxadiazole-5-carboxamide trifluoroacetate] the value was 1 to 10 nM; for `Cc1cc(-c2ncnn3cc(N4CC(CO)(CO)C4)cc23)ccc1CNC(=O)c1noc(C(C)(C)C)n1` [Example 73, N-(4-(6-(3,3-bis(hydroxymethyl)azetidin-1-yl)pyrrolo[2,1-f][1,2,4]triazin-4-yl)-2-methylbenzyl)-5-(tert-butyl)-1,2,4-oxadiazole-3-carboxamide], no more than 1 nM; for `Cc1cc(-c2ncnn3cc(N4CCN(C5COC5)C[C@@H]4C)cc23)ccc1CNC(=O)c1noc(C(C)(C)C)n1` [Example 75, (S)-5-(tert-butyl)-N-(2-methyl-4-(6-(2-methyl-4-(oxetan-3-yl)piperazin-1-yl)pyrrolo[2,1-f][1,2,4]triazin-4-yl)benzyl)-1,2,4-oxadiazole-3-carboxamide], 1 to 10 nM.
The compound `C#Cc1cc2c(-c3ccc(CNC(=O)c4noc(C(C)(C)C)n4)c(C)c3)ncnn2c1` [Example 76, 5-(tert-butyl)-N-(4-(6-ethynylpyrrolo[2,1-f][1,2,4]triazin-4-yl)-2-methylbenzyl)-1,2,4-oxadiazole-3-carboxamide trifluoroacetate] displayed an IC50 of 1 to 10 nM.
Regarding `COCc1cc2c(-c3ccc(CNC(=O)c4noc(C(C)(C)C)n4)c(C)c3)ncnn2c1` [Example 77, 5-(tert-butyl)-N-(4-(6-(methoxymethyl)pyrrolo[2,1-f][1,2,4]triazin-4-yl)-2-methylbenzyl)-1,2,4-oxadiazole-3-carboxamide hydrochloride], the IC50 was 1 to 10 nM.
Compound `Cc1cc(-c2ncnn3cc(N4CCOC(C)(C)C4)cc23)ccc1CNC(=O)c1noc(C(C)(C)C)n1` [Example 78, 5-(tert-butyl)-N-(4-(6-(2,2-dimethylmorpholino)pyrrolo[2,1-f][1,2,4]triazin-4-yl)-2-methylbenzyl)-1,2,4-oxadiazole-3-carboxamide hydrochloride] registered an IC50 of no more than 1 nM.
`Cc1cc(-c2ncnn3cc(OC4CCOCC4)cc23)ccc1CNC(=O)c1noc(C(C)(C)C)n1` [Example 79, 5-(tert-butyl)-N-(2-methyl-4-(6-((tetrahydro-2H-pyran-4-yl)oxy)pyrrolo[2,1-f][1,2,4]triazin-4-yl)benzyl)-1,2,4-oxadiazole-3-carboxamide] gave an IC50 of 1 to 10 nM.
Turning to `Cc1cc(-c2ncnn3cc(-c4cnn(C)c4)cc23)ccc1CNC(=O)c1noc(C(C)(C)C)n1` [Example 80, 5-(tert-butyl)-N-(2-methyl-4-(6-(1-methyl-1H-pyrazol-4-yl)pyrrolo[2,1-f][1,2,4]triazin-4-yl)benzyl)-1,2,4-oxadiazole-3-carboxamide], the IC50 is no more than 1 nM.
`Cc1c(CNC(=O)c2nnc(C(C)(C)C)o2)ccc(-c2ncnn3cc(N4CCOCC4)cc23)c1F` [Example 81]: the IC50 is 1 to 10 nM.
With `Cc1c(CNC(=O)c2nc(C(C)(C)C)no2)ccc(-c2ccnc3cc(-c4cnn(C)c4)nn23)c1F` [Example 83], the IC50 was no more than 1 nM.
Consider `Cc1c(CNC(=O)c2noc(C(C)(C)C)n2)ccc(-c2ccnc3cc(N4CCOCC4)nn23)c1F` [Example 84], for which the half-maximal inhibitory concentration (IC50) was in the range of 1 to 10 nM.
`Cc1cc(-c2ncnn3cc(-c4cn[nH]c4)cc23)ccc1CNC(=O)c1noc(C(C)(C)C)n1` [Example 85] showed an IC50 of no more than 1 nM.
As to `Cc1c(CNC(=O)c2noc(C(C)(C)C)n2)ccc(-c2ncnn3cc(N4CCOCC4)cc23)c1F` [Example 86], the IC50 is no more than 1 nM.
Compound `Cc1c(CNC(=O)c2cn(C(C)(C)C)nn2)ccc(-c2ncnn3cc(N4CCOCC4)cc23)c1F` [Example 87] registered an IC50 of no more than 1 nM.
Regarding `Cc1c(CNC(=O)c2cnn(C(C)(C)C)c2)ccc(-c2ncnn3cc(N4CCOCC4)cc23)c1F` [Example 88], the IC50 is no more than 1 nM.
In the case of `Cc1c(CNC(=O)c2ccn(C(C)(C)C)n2)ccc(-c2ncnn3cc(N4CCOCC4)cc23)c1F` [Example 89], the IC50 lay in the range of 1 to 10 nM.
With `Cc1cc(-c2ncnn3cc(N4CCN(C)C[C@H]4C)cc23)ccc1CNC(=O)c1noc(C(C)(C)C)n1` [Example 92], the 50% inhibitory concentration (IC50) was 1 to 10 nM.
In the case of `Cc1cc(-c2ncnn3cc(N4C[C@@H]5C[C@H]4CN5C)cc23)ccc1CNC(=O)c1noc(C(C)(C)C)n1` [Example 93] it was greater than 10 nM; in that of `Cc1cc(-c2ncnn3cc(CC4CCOCC4)cc23)ccc1CNC(=O)c1noc(C(C)(C)C)n1` [Example 94], greater than 10 nM.
In turn, `Cc1cc(-c2ncnn3cc(C4CCOC4)cc23)ccc1CNC(=O)c1noc(C(C)(C)C)n1` (centres unmarked) [Example 95] showed a 50% inhibitory concentration (IC50) of 1 to 10 nM.
Take `Cc1cc(-c2ncnn3cc(N4CCN(C)C(C)C4)cc23)ccc1CNC(=O)c1noc(C(C)(C)C)n1` (centres unmarked) [Example 96]: the IC50 was no more than 1 nM.
With `COC1CCN(c2cc3c(-c4ccc(CNC(=O)c5nc(C(C)(C)C)no5)c(C)c4)ncnn3c2)CC1` [Example 97], the IC50 was no more than 1 nM.
`Cc1cc(-c2ncnn3cc(N4CCN(C)C(C)C4)cc23)ccc1CNC(=O)c1nnn(C(C)(C)C)n1` (centres unmarked) [Example 98] came in with an IC50 of no more than 1 nM.
Compound `Cc1cc(-c2ncnn3cc(N4CCOC(C(C)C)C4)cc23)ccc1CNC(=O)c1nc(C(C)(C)C)no1` (centres unmarked) [Example 100] registered an IC50 of 1 to 10 nM.
For `Cc1cc(-c2ncnn3cc(C4=CCSCC4)cc23)ccc1CNC(=O)c1noc(C(C)(C)C)n1` [Example 101], the IC50 was no more than 1 nM.
Compound `Cc1cc(-c2ncnn3cc(C#N)cc23)ccc1CNC(=O)c1noc(C(C)(C)C)n1` [Example 102] had an IC50 of 1 to 10 nM.
In the case of `Cc1cc(-c2ncnn3cc(C4=CCOCC4)cc23)ccc1CNC(=O)c1nc(C(C)(C)C)no1` [Example 103] it was no more than 1 nM.
In the case of `Cc1cc(-c2ncnn3cc(-c4cnn(C5COC5)c4)cc23)ccc1CNC(=O)c1noc(C(C)(C)C)n1` [Example 104], the IC50 is no more than 1 nM.
In the case of `Cc1cc(-c2ncnn3cc(N4CCOCC4)cc23)ccc1CNC(=O)c1nc(C(C)(C)C)no1` [Example 105] it was no more than 1 nM; in that of `Cc1cc(-c2ncnn3cc(-c4cn(C)nn4)cc23)ccc1CNC(=O)c1noc(C(C)(C)C)n1` [Example 106], no more than 1 nM.
